Results: publication PMC8448738, “Structural insight into the mechanism of energy transfer in cyanobacterial phycobilisomes” (Nature Communications, 2021)

How the values were obtained:
Assay in all cases: cryo-EM structure of intact phycobilisome, […] Å
Format in all cases: binding
[1] = target: T1, ApcF (Synechococcus 7002) (Picosynechococcus sp. PCC 7002, UniProt O68967); conditions: covalent; native chromophore
T1 construct: native, within intact phycobilisome purified from cells; mildly glutaraldehyde cross-linked; trimer A3

[2] = target: T2, ApcA (Synechococcus 7002) (Picosynechococcus sp. PCC 7002, UniProt B1XQM2); conditions: covalent; native chromophore
T2 construct: native, within intact phycobilisome purified from cells; mildly glutaraldehyde cross-linked
T2 sequence (B1XQM2 2-161): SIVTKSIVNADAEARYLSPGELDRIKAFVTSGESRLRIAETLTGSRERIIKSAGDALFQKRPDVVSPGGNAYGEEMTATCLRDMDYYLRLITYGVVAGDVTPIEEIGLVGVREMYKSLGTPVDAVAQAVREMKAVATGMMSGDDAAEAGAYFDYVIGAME

[3] = target: T3, ApcB (Synechococcus 7002) (Picosynechococcus sp. PCC 7002, UniProt O68970); conditions: covalent; native chromophore
T3 construct: native, within intact phycobilisome purified from cells; mildly glutaraldehyde cross-linked
T3 sequence (O68970 1-161): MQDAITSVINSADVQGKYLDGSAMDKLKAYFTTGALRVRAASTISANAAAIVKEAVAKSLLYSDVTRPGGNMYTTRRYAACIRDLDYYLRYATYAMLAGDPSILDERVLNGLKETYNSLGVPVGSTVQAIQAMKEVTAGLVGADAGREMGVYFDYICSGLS

[4] = target: T4, ApcD (Synechococcus 7002) (Picosynechococcus sp. PCC 7002, UniProt O68966); conditions: covalent; native chromophore
T4 construct: native, within intact phycobilisome purified from cells; mildly glutaraldehyde cross-linked; paired with ApcB in trimer A4

[5] = target: T5, ApcE (LCM), Synechococcus 7002 (Picosynechococcus sp. PCC 7002, UniProt O68973); conditions: covalent; native chromophore; in alpha-LCM domain
T5 construct: native, within intact phycobilisome; N-terminal alpha-LCM domain holds the bilin; three REP domains
T5 sequence (O68973 1-886): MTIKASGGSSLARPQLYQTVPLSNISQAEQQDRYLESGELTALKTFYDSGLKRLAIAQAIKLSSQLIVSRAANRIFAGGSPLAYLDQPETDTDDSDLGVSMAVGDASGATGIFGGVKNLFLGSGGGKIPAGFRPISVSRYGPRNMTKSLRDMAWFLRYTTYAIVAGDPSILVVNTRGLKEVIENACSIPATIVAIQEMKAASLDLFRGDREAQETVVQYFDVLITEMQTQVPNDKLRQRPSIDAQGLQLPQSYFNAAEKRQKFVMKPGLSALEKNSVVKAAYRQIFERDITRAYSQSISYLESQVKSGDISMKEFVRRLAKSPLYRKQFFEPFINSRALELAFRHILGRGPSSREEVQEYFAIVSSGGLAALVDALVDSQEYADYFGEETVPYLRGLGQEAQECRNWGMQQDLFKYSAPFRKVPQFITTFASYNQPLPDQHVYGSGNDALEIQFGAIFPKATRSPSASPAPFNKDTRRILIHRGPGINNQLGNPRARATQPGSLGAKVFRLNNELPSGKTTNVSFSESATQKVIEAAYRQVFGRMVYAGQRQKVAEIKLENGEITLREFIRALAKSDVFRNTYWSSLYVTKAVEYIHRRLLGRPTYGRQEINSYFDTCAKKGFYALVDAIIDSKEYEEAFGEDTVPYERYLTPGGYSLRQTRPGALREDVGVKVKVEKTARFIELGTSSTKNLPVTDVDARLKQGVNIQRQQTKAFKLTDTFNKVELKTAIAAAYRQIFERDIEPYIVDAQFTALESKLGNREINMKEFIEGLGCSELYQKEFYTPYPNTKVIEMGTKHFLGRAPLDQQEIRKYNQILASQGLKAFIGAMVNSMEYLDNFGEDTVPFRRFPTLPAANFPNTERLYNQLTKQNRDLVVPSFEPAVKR

Structure (SMILES): CC=C1C(=Cc2[nH]c(C=C3N=C(C=C4NC(=O)C(CC)=C4C)C(C)=C3CCC(=O)O)c(CCC(=O)O)c2C)NC(=O)C1C (centres unmarked) [phycocyanobilin]
- cryo-EM structure of intact phycobilisome, 3.5 Å [1]: The bilins of ApcF (orange), ApcE (red), and ApcA (forest green) are shown
- cryo-EM structure of intact phycobilisome, 3.5 Å [2]: The bilins of ApcF (orange), ApcE (red), and ApcA (forest green) are shown
- cryo-EM structure of intact phycobilisome, 3.5 Å [3]: Y116 is located between αApcD and the bilin of ApcB^A4-II
- cryo-EM structure of intact phycobilisome, 3.5 Å [4]: Only the bilin of ApcD is shown with its ring-A through ring-D indicated.
- cryo-EM structure of intact phycobilisome, 3.5 Å [5]: The bilins of ApcF (orange), ApcE (red), and ApcA (forest green) are shown
